These are literature values, as cited in patent US6514527B1, “Compositions comprising a mixture of bioflavonols” (Merck Patentgesellschaft, priority 1998, dated 2003).

Structures are written as SMILES.

The conditions of the series: orally administered.

Regarding `O=c1c(O[C@@H]2O[C@H](CO)[C@@H](O)[C@H](O)[C@H]2O)c(-c2ccc(O)c(O)c2)oc2cc(O)cc(O)c12` [isoquercetin], the “time to reach peak” value was “about 0.70 h”.
Take `O=c1c(O)c(-c2ccc(O)c(O)c2)oc2cc(O)cc(O)c12` [quercetin]: the “time to reach peak” value is reported as “about 3 h”.
